According to PubChem BioAssay (NCI):
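Briefly, cells in 96-well plates were exposed to five compound concentrations for 48 h, and endpoints were estimated by linear interpolation. TGI: total growth inhibition.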

Experiments:
Experiment in all cases: DTP human tumour cell line panel, 48 h
SNB-19 CNS = system: SNB-19 CNS
CAKI-1 renal = system: CAKI-1 renal
BT-549 breast = system: BT-549 breast
A549 NSCLC = system: A549 NSCLC
SR leukemia = system: SR leukemia
T-47D breast = system: T-47D breast
MALME-3M melanoma = system: MALME-3M melanoma
A498 renal = system: A498 renal
ACHN renal = system: ACHN renal
SW-620 colon = system: SW-620 colon
NCI-H226 lung = system: NCI-H226 lung
HT29 colon = system: HT29 colon
786-0 renal = system: 786-0 renal
HCT-15 colon = system: HCT-15 colon
MOLT-4 leukemia = system: MOLT-4 leukemia
SK-MEL-5 melanoma = system: SK-MEL-5 melanoma
HOP-62 NSCLC = system: HOP-62 NSCLC
SN12C renal = system: SN12C renal
MDA-N = system: MDA-N
M14 melanoma = system: M14 melanoma
K-562 leukemia = system: K-562 leukemia
HCC-2998 colon = system: HCC-2998 colon
HOP-92 NSCLC = system: HOP-92 NSCLC
OVCAR-4 ovarian = system: OVCAR-4 ovarian
MDA-MB-231 breast = system: MDA-MB-231 breast
NCI-H460 lung = system: NCI-H460 lung
TK-10 renal = system: TK-10 renal
UO-31 renal = system: UO-31 renal
SNB-75 CNS = system: SNB-75 CNS
SF-295 CNS = system: SF-295 CNS
EKVX NSCLC = system: EKVX NSCLC
DU-145 prostate = system: DU-145 prostate
HS 578T breast = system: HS 578T breast
SK-OV-3 ovarian = system: SK-OV-3 ovarian
CCRF-CEM leukemia = system: CCRF-CEM leukemia
LOX IMVI melanoma = system: LOX IMVI melanoma
U251 CNS = system: U251 CNS
UACC-257 melanoma = system: UACC-257 melanoma
SF-539 CNS = system: SF-539 CNS
HL-60(TB) leukemia = system: HL-60(TB) leukemia
OVCAR-8 ovarian = system: OVCAR-8 ovarian
IGROV1 ovarian = system: IGROV1 ovarian
SK-MEL-28 melanoma = system: SK-MEL-28 melanoma
MDA-MB-435 = system: MDA-MB-435
COLO 205 colon = system: COLO 205 colon
PC-3 prostate = system: PC-3 prostate
OVCAR-5 ovarian = system: OVCAR-5 ovarian
MCF7 breast = system: MCF7 breast
UACC-62 melanoma = system: UACC-62 melanoma
OVCAR-3 ovarian = system: OVCAR-3 ovarian
NCI/ADR-RES ovarian = system: NCI/ADR-RES ovarian
SK-MEL-2 melanoma = system: SK-MEL-2 melanoma
HCT-116 colon = system: HCT-116 colon
KM12 colon = system: KM12 colon
NCI-H23 lung = system: NCI-H23 lung

For O=C1/C(=C/c2ccc(Cl)cc2)CCC/C1=C\c1ccc(O)c(CN2CCCCC2)c1, the TGI (SNB-19 CNS) was greater than 100 µM, the TGI (CAKI-1 renal) was 40.2 µM and the TGI (BT-549 breast) was 31 µM. It also gave a TGI (A549 NSCLC) greater than 100 µM, a TGI (SR leukemia) of 9.67 µM and a TGI (T-47D breast) of 63.5 µM. For the same compound, the TGI (MALME-3M melanoma) was 59.1 µM, the TGI (A498 renal) was 30 µM and the TGI (ACHN renal) was 30.7 µM. It also gave a TGI (SW-620 colon) greater than 100 µM, a TGI (NCI-H226 lung) of 35.5 µM and a TGI (HT29 colon) of 17.5 µM. The TGI (786-0 renal) was 34.5 µM, the TGI (HCT-15 colon) was 27.2 µM and the TGI (MOLT-4 leukemia) was 69.4 µM. It also gave a TGI (SK-MEL-5 melanoma) of 35.3 µM, a TGI (HOP-62 NSCLC) greater than 100 µM and a TGI (SN12C renal) of 87.8 µM. For the same compound, the TGI (MDA-N) was greater than 100 µM, the TGI (M14 melanoma) was 49.3 µM and the TGI (K-562 leukemia) was 66.1 µM. It also gave a TGI (HCC-2998 colon) of 38.7 µM, a TGI (HOP-92 NSCLC) of 42.1 µM and a TGI (OVCAR-4 ovarian) of 44.2 µM. The TGI (MDA-MB-231 breast) was 63.6 µM, the TGI (NCI-H460 lung) was 94.3 µM and the TGI (TK-10 renal) was 79.2 µM. For the same compound, the TGI (UO-31 renal) was 31.5 µM, the TGI (SNB-75 CNS) was greater than 100 µM and the TGI (SF-295 CNS) was 43.3 µM. For the same compound, the TGI (EKVX NSCLC) was 40.7 µM, the TGI (DU-145 prostate) was 36.9 µM and the TGI (HS 578T breast) was 46 µM. It also gave a TGI (SK-OV-3 ovarian) of 89.5 µM, a TGI (CCRF-CEM leukemia) of 35 µM and a TGI (LOX IMVI melanoma) of 42.5 µM. The TGI (U251 CNS) was 57.1 µM, the TGI (UACC-257 melanoma) was 90.7 µM and the TGI (SF-539 CNS) was 58.3 µM. The TGI (HL-60(TB) leukemia) was 7.25 µM, the TGI (OVCAR-8 ovarian) was 48.8 µM and the TGI (IGROV1 ovarian) was 44 µM. It also gave a TGI (SK-MEL-28 melanoma) of 62.6 µM, a TGI (MDA-MB-435) greater than 100 µM and a TGI (COLO 205 colon) of 59.3 µM. It also gave a TGI (PC-3 prostate) greater than 100 µM, a TGI (OVCAR-5 ovarian) of 50.4 µM and a TGI (MCF7 breast) greater than 100 µM. For the same compound, the TGI (UACC-62 melanoma) was 36 µM, the TGI (OVCAR-3 ovarian) was 87.5 µM and the TGI (NCI/ADR-RES ovarian) was 51.8 µM. For the same compound, the TGI (SK-MEL-2 melanoma) was greater than 100 µM, the TGI (HCT-116 colon) was 33.5 µM and the TGI (KM12 colon) was 16.7 µM. The TGI (NCI-H23 lung) was 49.1 µM.
